Experimental data from ChEMBL document CHEMBL5390283, “Discovery of PVD-06 as a Subtype-Selective and Efficient PTPN2 Degrader” (J Med Chem, 2023).
Activity calls are given as the source filed them. The rule behind the calls is not given here.

Tests used:
[1] = target: T1, Tyrosine-protein phosphatase non-receptor type 1 (Homo sapiens, UniProt P18031); assay: Inhibition of 6xHis-tagged PTP1B (unknown origin) Escherichia coli BL21 (DE3)-RIL using OMFP as substrate incubated for 30 mins by fluorescence based assay
T1 sequence (P18031 whole entry): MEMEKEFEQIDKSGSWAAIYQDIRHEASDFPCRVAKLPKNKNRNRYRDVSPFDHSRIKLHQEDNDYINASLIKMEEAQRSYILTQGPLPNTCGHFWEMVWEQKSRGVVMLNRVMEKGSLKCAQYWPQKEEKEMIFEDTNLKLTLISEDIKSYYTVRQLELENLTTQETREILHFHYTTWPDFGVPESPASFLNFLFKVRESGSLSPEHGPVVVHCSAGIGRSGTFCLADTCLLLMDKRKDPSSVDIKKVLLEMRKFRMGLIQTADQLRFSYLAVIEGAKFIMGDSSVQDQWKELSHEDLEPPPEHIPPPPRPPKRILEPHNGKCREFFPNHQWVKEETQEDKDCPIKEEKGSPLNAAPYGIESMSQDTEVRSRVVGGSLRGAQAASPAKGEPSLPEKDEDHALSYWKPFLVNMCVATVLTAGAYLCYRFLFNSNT

[2] = tested on: Splenocyte; assay: Effect on PTP1B level in mouse splenocytes at 0.013 to 10 uM by Western blot analysis; assay type: functional, cell-based; conditions: dose 0.013-10 µM
[3] = tested on: B16-F10; assay: Effect on PTP1B level in mouse B16-F10 cells at 0.013 to 10 uM by Western blot analysis; assay type: functional, cell-based; conditions: dose 0.013-10 µM
[4] = target: T2, von Hippel-Lindau disease tumor suppressor/Tyrosine-protein phosphatase non-receptor type 2 (Homo sapiens, UniProt P17706+P40337); assay: PROTAC activity at VHL/PTPN2 in IFN-gamma-stimulated human Jurkat cells assessed as increase in STAT1 phosphorylation at 0.1 to 10 uM incubated for 24 hrs by Western blot analysis; assay type: cell-based; conditions: dose 0.1-10 µM
Target sequence in this assay (P40337 whole entry, looked up, one chain of several): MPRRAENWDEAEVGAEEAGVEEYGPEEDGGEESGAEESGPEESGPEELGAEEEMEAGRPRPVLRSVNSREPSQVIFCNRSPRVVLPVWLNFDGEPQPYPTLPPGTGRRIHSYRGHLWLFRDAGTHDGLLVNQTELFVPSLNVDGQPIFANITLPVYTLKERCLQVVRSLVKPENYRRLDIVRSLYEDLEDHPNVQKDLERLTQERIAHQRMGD

[5] = tested on: Jurkat; assay: Effect on PTPN6 level in human Jurkat cells at 1 uM incubated for 24 hrs by label free proteomic analysis; assay type: functional, cell-based
[6] = target: T2, von Hippel-Lindau disease tumor suppressor/Tyrosine-protein phosphatase non-receptor type 2; assay: PROTAC activity at VHL/PTPN2 in human Jurkat cells assessed as induction of PTPN2 degradation at 1 uM by Western blot analysis relative to control; assay type: cell-based
Target sequence in this assay (P40337 whole entry, looked up, one chain of several): as above

[7] = target: T2, von Hippel-Lindau disease tumor suppressor/Tyrosine-protein phosphatase non-receptor type 2; assay: PROTAC activity at VHL/PTPN2 in human Jurkat cells assessed as induction of PTPN2 degradation by Western blot analysis; assay type: cell-based
Target sequence in this assay (P40337 whole entry, one chain of several): as the sequence (P40337 whole entry, looked up, one chain of several) above

[8] = target: T2, von Hippel-Lindau disease tumor suppressor/Tyrosine-protein phosphatase non-receptor type 2; assay: PROTAC activity at VHL/PTPN2 in human Jurkat cells assessed as induction of PTPN2 degradation at 1 uM by Western blot analysis; assay type: cell-based; conditions: time 1-48 hrs, TDE = time-dependent effect
Target sequence in this assay (P40337 whole entry, looked up, one chain of several): as above

[9] = tested on: Jurkat; assay: Effect on PTP1B level in human Jurkat cells at 1 uM incubated for 1 to 48 hrs by Western blot analysis; assay type: functional, cell-based; conditions: time 1-48 hrs
[10] = tested on: Jurkat; assay: Effect on PTPN18 level in human Jurkat cells at 1 uM incubated for 24 hrs by label free proteomic analysis; assay type: functional, cell-based
[11] = target: T2, von Hippel-Lindau disease tumor suppressor/Tyrosine-protein phosphatase non-receptor type 2; assay: PROTAC activity at VHL/PTPN2 in human Jurkat cells assessed as increase in STAT1 phosphorylation incubated for 23 hrs followed by IFN-gamma stimulation for 1 hr by Western blot analysis; assay type: cell-based; conditions: dose <= 10.0 µM, time 24.0 hrs
Target sequence in this assay (P40337 whole entry, looked up, one chain of several): as above

[12] = tested on: Jurkat; assay: Effect on PTPN7 level in human Jurkat cells at 1 uM incubated for 24 hrs by label free proteomic analysis; assay type: functional, cell-based
[13] = tested on: B16-F10; assay: Effect on SHP-1 level in mouse B16-F10 cells at 0.013 to 10 uM by Western blot analysis; assay type: functional, cell-based; conditions: dose 0.013-10 µM
[14] = tested on: Jurkat; assay: Effect on PTPN1 level in human Jurkat cells at 1 uM incubated for 24 hrs by label free proteomic analysis; assay type: functional, cell-based
[15] = tested on: B16-F10; assay: Effect on SHP-2 level in mouse B16-F10 cells at 0.013 to 10 uM by Western blot analysis; assay type: functional, cell-based; conditions: dose 0.013-10 µM
[16] = target: T2, von Hippel-Lindau disease tumor suppressor/Tyrosine-protein phosphatase non-receptor type 2; assay: PROTAC activity at VHL/PTPN2 in human Jurkat cells assessed as induction of PTPN2 degradation at 10 uM by Western blot analysis relative to control; assay type: cell-based
Target sequence in this assay (P40337 whole entry, looked up, one chain of several): as above

[17] = tested on: Splenocyte; assay: Induction of cell proliferation in anti-CD3/CD28-stimulated mouse splenocytes incubated for 3 days by CFSE dye based flow cytometry; assay type: functional; conditions: dose 1.25-5 µM, time 3.0 day
[18] = tested on: Jurkat; assay: Effect on PTP1B level in human Jurkat cells at 0.1 to 10 uM incubated for 24 hrs by Western blot analysis; assay type: functional, cell-based; conditions: dose 0.1-10 µM
[19] = target: von Hippel-Lindau disease tumor suppressor/Tyrosine-protein phosphatase non-receptor type 1 (Homo sapiens, UniProt P18031+P40337); assay: PROTAC activity at VHL/PTP1B in human Jurkat cells assessed as induction of PTP1B degradation by Western blot analysis; assay type: cell-based
Sequence of von Hippel-Lindau disease tumor suppressor/Tyrosine-protein phosphatase non-receptor type 1 (P40337 whole entry, one chain of several): as the sequence (P40337 whole entry, looked up, one chain of several) above

[20] = tested on: B16-F10; assay: Inhibition of cell growth in IFN-gamma-treated mouse B16-F10 cells assessed as reduction in cell confluency measured upto 96 hrs; assay type: functional, cell-based; conditions: dose 1.25-5 µM
[21] = target: T2, von Hippel-Lindau disease tumor suppressor/Tyrosine-protein phosphatase non-receptor type 2; assay: PROTAC activity at VHL/PTPN2 in IFN-gamma-stimulated human Jurkat cells assessed as induction of PTPN2 degradation at 0.1 to 10 uM incubated for 24 hrs by Western blot analysis; assay type: cell-based; conditions: dose 0.1-10 µM
Target sequence in this assay (P40337 whole entry, looked up, one chain of several): as above

[22] = target: T2, von Hippel-Lindau disease tumor suppressor/Tyrosine-protein phosphatase non-receptor type 2; assay: PROTAC activity at VHL/PTPN2 in human Jurkat cells assessed as induction of PTPN2 degradation at 1 uM incubated for 24 hrs by label free proteomic analysis; assay type: cell-based
[23] = tested on: HepG2; assay: Effect on PTP1B level in human HepG2 cells at 0.013 to 10 uM by Western blot analysis; assay type: functional, cell-based; conditions: dose 0.013-10 µM
[24] = tested on: Jurkat; assay: Effect on STAT1 level in human Jurkat cells at 0.1 to 10 uM incubated for 24 hrs by Western blot analysis; assay type: functional, cell-based; conditions: dose 0.1-10 µM
[25] = tested on: Jurkat; assay: Effect on PTPN23 level in human Jurkat cells at 1 uM incubated for 24 hrs by label free proteomic analysis; assay type: functional, cell-based
[26] = tested on: Splenocyte; assay: Effect on SHP-2 level in mouse splenocytes cells at 0.013 to 10 uM by Western blot analysis; assay type: functional, cell-based; conditions: dose 0.013-10 µM
[27] = target: T2, von Hippel-Lindau disease tumor suppressor/Tyrosine-protein phosphatase non-receptor type 2; assay: PROTAC activity at VHL/PTPN2 in human HepG2 cells assessed as induction of PTPN2 degradation at 0.013 to 10 uM by Western blot analysis; assay type: cell-based; conditions: dose 0.013-10 µM
[28] = tested on: Splenocyte; assay: Effect on SHP-1 level in mouse splenocytes at 0.013 to 10 uM by Western blot analysis; assay type: functional, cell-based; conditions: dose 0.013-10 µM
[29] = target: T3, von Hippel-Lindau disease tumor suppressor/Receptor-type tyrosine-protein phosphatase N2 (Mus musculus) (UniProt P40338+P80560); assay: PROTAC activity at VHL/PTPN2 in mouse B16-F10 cells assessed as induction of PTPN2 degradation at 0.013 to 10 uM by Western blot analysis; assay type: cell-based; conditions: dose 0.013-10 µM
T3 sequence (P40338 whole entry, looked up): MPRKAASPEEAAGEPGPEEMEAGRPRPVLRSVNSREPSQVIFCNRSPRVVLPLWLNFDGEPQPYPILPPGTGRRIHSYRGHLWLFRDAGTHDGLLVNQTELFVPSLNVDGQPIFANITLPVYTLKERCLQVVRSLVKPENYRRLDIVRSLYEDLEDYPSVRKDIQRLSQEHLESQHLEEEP
T3 sequence (P80560 whole entry, looked up): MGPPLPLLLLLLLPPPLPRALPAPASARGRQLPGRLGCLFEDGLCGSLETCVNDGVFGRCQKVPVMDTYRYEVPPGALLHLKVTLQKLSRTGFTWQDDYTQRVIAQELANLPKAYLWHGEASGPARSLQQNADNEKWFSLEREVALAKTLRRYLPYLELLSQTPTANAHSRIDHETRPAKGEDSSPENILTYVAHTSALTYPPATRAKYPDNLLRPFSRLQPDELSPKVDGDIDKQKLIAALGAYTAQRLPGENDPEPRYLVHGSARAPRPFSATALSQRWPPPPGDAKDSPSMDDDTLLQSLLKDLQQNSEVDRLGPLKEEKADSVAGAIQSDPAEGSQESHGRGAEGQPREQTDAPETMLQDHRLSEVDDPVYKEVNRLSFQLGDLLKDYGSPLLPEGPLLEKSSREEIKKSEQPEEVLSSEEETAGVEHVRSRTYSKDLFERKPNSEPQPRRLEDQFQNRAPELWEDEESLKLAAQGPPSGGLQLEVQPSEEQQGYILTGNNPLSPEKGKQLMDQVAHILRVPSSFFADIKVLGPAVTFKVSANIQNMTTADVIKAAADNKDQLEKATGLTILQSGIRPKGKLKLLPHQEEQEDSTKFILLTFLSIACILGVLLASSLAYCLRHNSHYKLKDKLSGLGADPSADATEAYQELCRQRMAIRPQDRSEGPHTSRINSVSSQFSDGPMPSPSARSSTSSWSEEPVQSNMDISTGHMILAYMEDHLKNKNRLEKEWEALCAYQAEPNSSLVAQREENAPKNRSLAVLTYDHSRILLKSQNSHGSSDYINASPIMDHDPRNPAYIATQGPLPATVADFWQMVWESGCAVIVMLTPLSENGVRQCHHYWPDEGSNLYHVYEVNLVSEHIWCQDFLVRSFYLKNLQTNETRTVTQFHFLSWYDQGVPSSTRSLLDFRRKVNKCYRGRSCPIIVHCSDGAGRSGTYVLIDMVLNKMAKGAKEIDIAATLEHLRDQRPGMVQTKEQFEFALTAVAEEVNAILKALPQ

[30] = tested on: Jurkat; assay: Effect on PTPN11 level in human Jurkat cells at 1 uM incubated for 24 hrs by label free proteomic analysis; assay type: functional, cell-based
[31] = target: T3, von Hippel-Lindau disease tumor suppressor/Receptor-type tyrosine-protein phosphatase N2 (Mus musculus); assay: PROTAC activity at VHL/PTPN2 in mouse splenocytes assessed as induction of PTPN2 degradation at 0.013 to 10 uM by Western blot analysis; assay type: cell-based; conditions: Splenocyte, dose 0.013-10 µM
[32] = tested on: Jurkat; assay: Effect on PTPN9 level in human Jurkat cells at 1 uM incubated for 24 hrs by label free proteomic analysis; assay type: functional, cell-based
[33] = target: T2, von Hippel-Lindau disease tumor suppressor/Tyrosine-protein phosphatase non-receptor type 2; assay: PROTAC activity at VHL/PTPN2 in human Jurkat cells assessed as induction of PTPN2 degradation at 100 nM by Western blot analysis relative to control; assay type: cell-based
[34] = target: T4, Tyrosine-protein phosphatase non-receptor type 2 (Homo sapiens, UniProt P17706); assay: Inhibition of PTPN2 (unknown origin) using DiFMUP as substrate by […] based assay
T4 sequence (P17706 whole entry): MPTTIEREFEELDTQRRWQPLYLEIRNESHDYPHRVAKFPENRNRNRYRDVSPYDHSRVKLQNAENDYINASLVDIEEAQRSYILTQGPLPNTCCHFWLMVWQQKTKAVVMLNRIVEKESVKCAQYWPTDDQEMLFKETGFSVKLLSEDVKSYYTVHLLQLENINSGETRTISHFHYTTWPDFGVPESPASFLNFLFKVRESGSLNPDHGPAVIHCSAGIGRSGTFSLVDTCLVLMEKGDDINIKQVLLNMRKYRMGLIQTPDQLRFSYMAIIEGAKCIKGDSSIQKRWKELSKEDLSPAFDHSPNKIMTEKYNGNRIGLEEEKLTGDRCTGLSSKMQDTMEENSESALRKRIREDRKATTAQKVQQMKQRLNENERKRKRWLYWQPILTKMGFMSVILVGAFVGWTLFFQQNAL

[35] = target: T1, Tyrosine-protein phosphatase non-receptor type 1; assay: Inhibition of PTP1B (unknown origin) using DiFMUP as substrate by […] based assay

**Q.** For `CC(C)(C)C(=O)Nc1ccc2c(c1)C(=O)C(=O)c1ccccc1-2`, which IC50 [1] is on record?
**A.** Its IC50 is 950 nM.

**Q.** For `Cc1ncsc1-c1ccc([C@H](C)NC(=O)[C@@H]2C[C@@H](O)CN2C(=O)[C@@H](NC(=O)CCCCCNC(=O)Cn2cc(-c3ccc4cc(O)c(N5CC(=O)NS5(=O)=O)c(F)c4c3)cn2)C(C)(C)C)cc1`, which Activity [2] is on record?
**A.** The Activity was “inactive”.

**Q.** What about the Activity [3] of the same compound?
**A.** The Activity was “inactive”.

**Q.** What about the Activity ([4]; DEGRADER) of the same compound?
**A.** The Activity was “Active”.

**Q.** And the Activity [4]?
**A.** Its Activity is “inactive”.

**Q.** What about the Activity [5] of the same compound?
**A.** The Activity was “inactive”.

**Q.** What about the Activity [6] of the same compound?
**A.** The Activity was 81%.

**Q.** What about the EC50 [7] of the same compound?
**A.** The EC50 was 217 nM.

**Q.** What about the Activity [8] of the same compound?
**A.** Its Activity is “Tde”.

**Q.** What about the Activity [9] of the same compound?
**A.** Its Activity is “inactive”.

**Q.** And the Activity [10]?
**A.** The Activity was “inactive”.

**Q.** And the Activity [11]?
**A.** The Activity was “Dose-Dependent Effect”.

**Q.** What about the Activity [12] of the same compound?
**A.** Its Activity is “inactive”.

**Q.** What about the Activity [13] of the same compound?
**A.** Its Activity is “inactive”.

**Q.** What about the Activity [14] of the same compound?
**A.** The Activity was “inactive”.

**Q.** And the Activity [15]?
**A.** The Activity was “inactive”.

**Q.** And the Activity [16]?
**A.** Its Activity is 99%.

**Q.** And the Activity [17]?
**A.** Its Activity is “Dose-Dependent Effect”.

**Q.** What about the Activity [18] of the same compound?
**A.** The Activity was “inactive”.

**Q.** What about the EC50 [19] of the same compound?
**A.** Its EC50 is 13100 nM.

**Q.** And the inhibition [20]?
**A.** The inhibition was “Dose-Dependent Effect”.

**Q.** What about the Activity ([21]; DEGRADER) of the same compound?
**A.** Its Activity is “Active”.

**Q.** And the Activity [21]?
**A.** The Activity was “inactive”.

**Q.** What about the Activity [22] of the same compound?
**A.** The Activity was “Active”.

**Q.** What about the Activity [23] of the same compound?
**A.** The Activity was “inactive”.

**Q.** And the Activity [24]?
**A.** Its Activity is “inactive”.

**Q.** What about the Activity [25] of the same compound?
**A.** The Activity was “inactive”.

**Q.** And the Activity [26]?
**A.** Its Activity is “inactive”.

**Q.** And the Activity [27]?
**A.** The Activity was “Active”.

**Q.** What about the Activity [28] of the same compound?
**A.** The Activity was “inactive”.

**Q.** What about the Activity [29] of the same compound?
**A.** Its Activity is “Active”.

**Q.** What about the Activity [30] of the same compound?
**A.** The Activity was “inactive”.

**Q.** And the Activity [31]?
**A.** Its Activity is “Active”.

**Q.** And the Activity [32]?
**A.** The Activity was “inactive”.

**Q.** And the Activity [33]?
**A.** Its Activity is 43%.

**Q.** With `O=C1CN(c2c(O)cc3ccc(Br)cc3c2F)S(=O)(=O)N1` as the compound, how does the IC50 [34] read?
**A.** The IC50 was 11.4 nM.

**Q.** And the IC50 [35]?
**A.** Its IC50 is 8.39 nM.
